The values that follow are results of earlier work, collected in US20220287943A1, “METHOD FOR TREATING KERATIN MATERIAL, COMPRISING THE APPLICATION OF AN ORGANIC C1-C6-ALKOXY-SILANE AND AN AMINO ACID AND/OR AMINO ACID DERIVATIVE” (Henkel AG & Co. KGaA, priority 2019, published 2022).

For the series the following is noted: for solubility in water: about 25° C.

Turning to `O=S(=O)([O-])c1ccc(N=Nc2c(O)ccc3ccccc23)cc1.[Na+]` [Acid Orange 7, sodium salt of 4-[(2-hydroxy-1-naphthy)azo]lbenzene sulphonate], the solubility in water result is given as “more than 7 g/L”. Turning to `Nc1cc(S(=O)(=O)[O-])cc2cc(S(=O)(=O)[O-])c(N=Nc3ccccc3)c(O)c12.[Na+].[Na+]` [Acid Red 33, diantrium salt of 5-amino-4-hydroxy-3-(phenylazo)-naphthalene-2,7-disulphonate], the solubility in water result is on record as “about 2.5 g/L”.

As to `O=C([O-])C1=NN(c2ccc(S(=O)(=O)[O-])cc2)C(=O)C1N=Nc1ccc(S(=O)(=O)[O-])cc1.[Na+].[Na+].[Na+]` (stereo not drawn) [Acid Yellow 23, trisodium salt of 4,5-dihydro-5-oxo-1-(4-sulfophenyl)-4-((4-sulfophenyl)azo)-1H-pyrazole-3-carboxylic acid], the “solubility in water (in words)” value (at about 25° C.) is “highly soluble in water”.
